Earlier results, collected in patent US20220323353A1, “BIODEGRADABLE DRUG-ELUTING EMBOLIC PARTICLES FOR DELIVERY OF THERAPEUTIC AGENTS” (Becton, Dickinson and Company, priority 2019, published 2022).

Test system: hepatocellular carcinoma
Conditions: administrated via the hepatic artery

## COc1cccc2c1C(=O)c1c(O)c3c(c(O)c1C2=O)C[C@@](O)(C(=O)CO)C[C@@H]3O[C@H]1C[C@H](N)[C@H](O)[C@H](C)O1 [doxorubicin]
  antitumor activity in hepatocellular carcinoma patients: antitumor effects and partial response
